Experiments:
C. elegans [1] = assay: Nematicidal activity of methyl ester, salt and free fatty acid emulsions vs. C. elegans N2s (Table 3); format: in vivo, Caenorhabditis elegans
Description: Nematicidal Activity of Single Fatty Acid Methyl Ester, Salt and Free Fatty Acid Emulsions Against Caenorhabditis elegans […] and Dauers

C. elegans dauers = assay: Nematicidal activity of methyl ester, salt and free fatty acid emulsions vs. C. elegans dauers (Table 4); format: in vivo, Caenorhabditis elegans
M. incognita [2] = assay: Nematicidal activity of fatty acid methyl ester emulsions, nematode spectrum (Table 6); format: in vivo, Meloidogyne incognita; details: M. incognita 2nd stage juveniles, head 24 hr, b171 48 hours
Method: (§1) Briefly, the indicated fatty acid emulsions were added to nematodes in wells of a 24-well plate and rapidly mixed by swirling. […] Results shown are mean % values obtained from multiple independent experiments
(§2) The Caenorhabditis elegans were mixed stage populations. Similar effects were seen on several other free-living nematode species. The Parastrongyloides trichosuri (parasite of Australian bushtail possum) were dauer-like infective 3rd stage larva. Similar effects are also seen against free-living stages. The Meloidogyne incognita and Meloidogyne javanica (root knot nematode) were 2nd stage juveniles (dauer-like infective stage). The Heterodera glycines (soybean cyst nematode) were 2nd stage juveniles (dauer-like infective stage). Finally, the Pratylenchus scribneri (corn lesion nematode) were mixed stage populations.

H. glycines = assay: as above; format: in vivo, Heterodera glycines; details: H. glycines 2nd stage juveniles, head 24 hr, b171 48 hours
Method: as §1, §2

[3] = system: wide spectrum of divergent nematode genera; assay: Summary of Table 6: free-living, animal parasitic and plant parasitic nematodes; format: in vivo
Method: as §1

tomato seedlings = assay: Phytotoxicity evaluation of fatty acid methyl esters on tomato seedlings; format: in vivo; details: for phytotoxic effects on tomato seedlings: 250 μl of 1% emulsion at stem-media interface of two-week seedlings
Method: Sterilized tomato seeds were germinated in magenta jars containing Gamborg's agar media. After two weeks of growth, seedlings were treated with 250 μl of 1% fatty acid methyl ester emulsion (nonanoic acid, ricinoleic acid, ricinelaidic acid, oleic acid, or a control emulsion lacking any fatty acid), applied directly to the stem-media interface. Tomato seedlings were scored at various times after application of emulsions.

P. trichosuri = assay: Nematicidal activity of fatty acid methyl ester emulsions, nematode spectrum (Table 6); format: in vivo, Parastrongyloides trichosuri; details: P. trichosuri infective 3rd stage larva
Method: as §1, §2

C. elegans [4] = assay: as above; format: in vivo, Caenorhabditis elegans; details: C. elegans mixed stage
Method: as §1, §2

M. javanica [5] = assay: as above; format: in vivo, Meloidogyne javanica; details: M. javanica 2nd stage juveniles, head 24 hr, b171 48 hours
Method: as §1, §2

P. scribneri = assay: as above; format: in vivo, Pratylenchus scribneri; details: P. scribneri mixed stage
Method: as §1, §2

C. elegans [6] = assay: Nematicidal activity of fatty acid methyl ester emulsions against C. elegans (Table 2)
C. elegans [7] = assay: Rescue of delta-12 fat2 RNAi feeding phenotype by fatty acid methyl esters; format: in vivo; details: for rescue of the delta-12 fat2 RNAi feeding phenotype: 3 mM added to NGM media
Description: RNAi by feeding: C. elegans can be grown on lawns of E. coli genetically engineered to produce double stranded RNA (dsRNA) designed to inhibit delta-12 fat2 expression. Briefly, E. coli were transformed with a genomic fragment of a portion of the C. elegans fat2 gene sequence, specifically a fragment 651 nucleotides long, containing the entire first exon and terminating just before the conserved intron splice junction between the first exon and first intron. This construct encodes approximately the first 217 amino acids of the C. elegans delta-12 fat2 gene. The 651 nucleotide genomic fragment was cloned into an E. coli expression vector between opposing T7 polymerase promoters. The clone was then transformed into a strain of E. coli that carries an IPTG-inducible T7 polymerase. As a control, E. coli was transformed with a gene encoding the Green Fluorescent Protein (GFP). Feeding RNAi was initiated from C. elegans eggs or from C. elegans L4s. […] The sequence of the fat2 gene is of sufficiently high complexity (i.e., unique) such that the RNAi is not likely to represent cross reactivity with other genes.
The C. elegans delta-12 fatty acid desaturase (FAT-2 protein) converts the mono-unsaturated oleic acid to the di-unsaturated fatty acid linoleic acid. The delta-12 fat2 RNAi prevents expression of the delta-12 fatty acid desaturase, which is predicted to cause a decrease in levels of linoleic acid in the nematode, leading to arrested development and death.

M. javanica [8] = assay: Nematicidal activity of fatty acid methyl ester emulsions against root knot nematode J2 larvae (Table 5); format: in vivo; details: 0.1% emulsion; 48 hours incubation, counted about 24 hours after transfer to plates
Method: (§3) M. incognita and M. javanica were prepared from tomato roots. The roots were bleached and the debris was separated from the J2 larvae and eggs by filtration followed by sucrose density gradient centrifugation. Eggs were hatched over 4 days at 15° C. and the J2 larvae were collected by passage though a filter, followed by centrifugation.
(§4) Nematodes and emulsions were incubated with shaking at room temperature for 48 hours. The contents of each well were transferred to a small spot on individual NGM plates lacking bacteria. About 24 hours after the transfer to plates, worms on and off the inoculation spot were counted as not viable or viable, respectively. Worms were considered viable if they had crawled away from the inoculation spot, or if they were moving. Worms were considered non-viable if they remained at the inoculation spot.

M. incognita [9] = assay: as above; format: in vivo; details: 0.1% emulsion; 48 hours incubation, counted about 24 hours after transfer to plates
Method: as §3, §4

Row | SMILES | worm death (C. elegans [1]; 0.001% emulsion) | worm death (C. elegans [1]; 0.01% emulsion) | worm death (C. elegans [1]; 0.1% emulsion) | worm death (C. elegans dauers; 0.01% emulsion) | worm death (C. elegans dauers; 0.1% emulsion) | Percentage of Worm Death 1 hr (C. elegans [6]; 0.003% emulsion) | Percentage of Worm Death 6 hr (C. elegans [6]; 0.003% emulsion) | Percentage of Worm Death 24 hr (C. elegans [6]; 0.003% emulsion) | Percentage of Worm Death 1 hr (C. elegans [6]; 0.1% emulsion) | Percentage of Worm Death 6 hr (C. elegans [6]; 0.1% emulsion) | Percentage of Worm Death 24 hr (C. elegans [6]; 0.1% emulsion) | further results
1 | CCCCCC[C@@H](O)C/C=C\CCCCCCCC(=O)[O-].[K+] [Potassium R, potassium salt of ricinoleic acid] | 5% | 15% | 90% | 20% | 75% |  |  |  |  |  |  | 
2 | CCCCCC[C@@H](O)C/C=C/CCCCCCCC(=O)O [Re free acid*, ricinelaidic acid] | 40% | 98% | 100% | 75% | 75% |  |  |  |  |  |  | 
3 | CCCCC/C=C\C/C=C\CCCCCCCC(=O)O [L free acid, linoleic acid, reference compound] | <5% | <5% | 10% | 40% | 50% |  |  |  |  |  |  | 
4 | CCCCCC[C@@H](O)C/C=C/CCCCCCCC(=O)OC [Re ME, ricinelaidic acid methyl ester] | 80% | 100% | 100% | 100% | 100% |  |  |  |  |  |  | % Worm Death (24 hr) (M. incognita [2]; 0.001% solution): 97%; % Worm Death (24 hr) (M. incognita [2]; 0.01% solution): ~99%; % Worm Death (24 hr) (M. incognita [2]; 0.1% solution): ~99%; % Worm Death (24 hr) (H. glycines; 0.001% solution): 100%; % Worm Death (24 hr) (H. glycines; 0.01% solution): 100%; % Worm Death (24 hr) (H. glycines; 0.1% solution): 100%; nematicidal activity ([3]; concentrations of 0.1% and 0.01%): strongly nematicidal; breadth of nematicidal activity ([3]; summary of Table 6): favorable nematicidal activity against a wide spectrum of divergent nematode genera; phytotoxic effects on tomato seedlings (tomato seedlings): low phytotoxicity; % Worm Death (24 hr) (P. trichosuri; 0.01% solution): 100%; % Worm Death (24 hr) (P. trichosuri; 0.1% solution): 100%; % Worm Death (24 hr) (C. elegans [4]; 0.001% solution): 75%; % Worm Death (24 hr) (C. elegans [4]; 0.01% solution): 100%; % Worm Death (24 hr) (C. elegans [4]; 0.1% solution): 100%; % Worm Death (24 hr) (M. javanica [5]; 0.001% solution): ~60%; % Worm Death (24 hr) (M. javanica [5]; 0.01% solution): 100%; % Worm Death (24 hr) (M. javanica [5]; 0.1% solution): 100%; % Worm Death (24 hr) (P. scribneri; 0.01% solution): ~40%; % Worm Death (24 hr) (P. scribneri; 0.1% solution): ~70%
5 | CCCCC/C=C\C/C=C\CCCCCCCC(=O)OC [Linoleic Acid (C18-methyl ester), linoleic acid methyl ester] | <5% | <5% | <5% | 20% | 40% | 0-5% | 0-5% | 0-5% | 0-5% | 0-5% | 0-5% | rescue of the delta-12 fat2 RNAi feeding phenotype (C. elegans [7]): partial rescue; P0 phenotype (C. elegans [7]; fat2 RNAi feeding starting with L4 larvae, 3 mM fatty acid methyl ester in NGM media): Reduced egg laying
6 | CCCCCCCC/C=C\CCCCCCCC(=O)OC [Oleic Acid (C18-methyl ester), oleic acid methyl ester] |  |  |  |  |  | 0-5% | 0-5% | 0-5% | 0-5% | 0-5% | 0-5% | rescue of the delta-12 fat2 RNAi feeding phenotype (C. elegans [7]): does not rescue
7 | CCCCCC[C@@H](O)C/C=C/CCCCCCCC(=O)[O-].[Na+] [Sodium Re*, sodium salt of ricinelaidic acid] |  | 100% | 100% |  |  |  |  |  |  |  |  | 
8 | CCCCCCCCC(=O)OC [Nonanoic (C9-methyl ester), pelargonic acid methyl ester] | 30% | 100% | 100% |  |  | 50% | 50% | 50% | 100% | 100% | 100% | time to almost entire bleaching and near total collapse (tomato seedlings; 250 μl of 1% emulsion): ≤ 24 h; phytotoxic effects on tomato seedlings (tomato seedlings): obvious phytotoxic effects; "stun" effect (C. elegans [6]; 0.003% emulsion, many nematodes recover several hours post inoculation): temporarily “stunned”; nematicidal activity (C. elegans [6]; concentration of 0.1%): strongly nematicidal; onset of effect on nematode movement and death (C. elegans [6]; emulsion, Table 2): almost immediate cessation of nematode movement and subsequent death
9 | CCCCCC1OC1C/C=C\CCCCCCCC(=O)OC (stereo in doubt) [Vernolic Acid (C18-methyl ester), vernolic acid methyl ester] |  |  |  |  |  | 20% | 20% | 20% | 65% | 65% | 75% | % Worm Death (24 hr) (M. incognita [2]; 0.01% solution): 73%; % Worm Death (24 hr) (M. incognita [2]; 0.1% solution): 98%; % Worm Death (24 hr) (H. glycines; 0.001% solution): 18%; % Worm Death (24 hr) (H. glycines; 0.01% solution): 20%; % Worm Death (24 hr) (H. glycines; 0.1% solution): 30%; M. javanica (% not viable) (M. javanica [8]): 90%; M. incognita (% not viable) (M. incognita [9]): 100%; % Worm Death (24 hr) (P. trichosuri; 0.01% solution): ~90%; % Worm Death (24 hr) (P. trichosuri; 0.1% solution): ~95%; % Worm Death (24 hr) (C. elegans [4]; 0.001% solution): 30%; % Worm Death (24 hr) (C. elegans [4]; 0.01% solution): 50%; % Worm Death (24 hr) (C. elegans [4]; 0.1% solution): 80%; % Worm Death (24 hr) (M. javanica [5]; 0.01% solution): 60%; % Worm Death (24 hr) (M. javanica [5]; 0.1% solution): 90%; % Worm Death (24 hr) (P. scribneri; 0.01% solution): <20%; % Worm Death (24 hr) (P. scribneri; 0.1% solution): <20%

From patent publication US7919680B2, “Nucleic acids encoding anthelmintic agents and plants made therefrom” (Divergence, Inc., priority 2004, dated 2011)
